Test results as given in patent US20260159511A1, “SMALL MOLECULE STING ANTAGONISTS” (CURADEV PHARMA PVT. LTD., priority 2021, published 2026).

Tested on: IRF pathway in THP1-Dual™ cells, THP-1 (HAQ)
Test: Reporter gene expression assay in THP-1 cells (THP1-Dual, IRF pathway Lucia luciferase reporter, 2′,3′-cGAMP stimulation)
Assay type: cell-based, human
Settings: Homo sapiens; THP1-Dual cells preincubated with compound 10 minutes, stimulation with 5 μM 2′,3′-cGAMP for 20 hr, QUANTI-Luc readout of the supernatant; read-out: THP-1 (HAQ) Activity (IC50 value range)
Method: Reporter Gene Expression Assay in THP-1 Cells
THP1-Dual™ cells (Invivogen) were derived from the human THP-1 monocyte cell line by stable integration of two inducible reporter constructs. As a result, THP1-Dual™ cells allow the simultaneous study of the IRF pathway, by assessing the activity of a secreted luciferase (Lucia) and the NF-κB pathway, by monitoring the activity of secreted SEAP. 5×10^4 THP1-Dual™ cells were seeded in 384-well plates in growth medium and preincubated with novel compounds for 10 minutes followed by stimulation with 5 μM 2′,3′-cGAMP. After 20 hr of stimulation the supernatant was removed and the IRF pathway reporter protein was readily measured in the cell culture supernatant using QUANTI-Luc™ (Invivogen), a luciferase detection reagent on a Spectramax i3X luminometer.

| Compound | IC50 [µM] |
| --- | --- |
| O=C(Nc1ccc2c(c1)N(Cc1ccccc1)C(=O)CS2)Nc1c[nH]c2ccc(-c3ccc4c(c3)OCO4)cc12 [Example 65, 1-(5-(benzo[d][1,3]dioxol-5-yl)-1H-indol-3-yl)-3-(4-benzyl-3-oxo-3,4-dihydro-2H-benzo[b][1,4]thiazin-6-yl)urea] | < 1 |
| O=C(Nc1ccc2c(c1)N(Cc1ccccc1)C(=O)CS2)Nc1c[nH]c2ccc(-c3cnoc3)cc12 [Example 66, 1-(4-benzyl-3-oxo-3,4-dihydro-2H-benzo[b][1,4]thiazin-6-yl)-3-(5-(isoxazol-4-yl)-1H-indol-3-yl)urea] | < 1 |
| O=C(Nc1ccc2c(c1)N(Cc1ccccc1)C(=O)CS2)Nc1c[nH]c2ccc(-c3cccc(C(F)(F)F)c3)cc12 [Example 67, 1-(4-benzyl-3-oxo-3,4-dihydro-2H-benzo[b][1,4]thiazin-6-yl)-3-(5-(3-(trifluoromethyl)phenyl)-1H-indol-3-yl)urea] | < 1 |
| CC(O)Cn1cc(-c2ccc3[nH]cc(NC(=O)Nc4ccc5c(c4)N(Cc4ccccc4)C(=O)CS5)c3c2)cn1 (stereo not drawn) [Example 68, 1-(4-benzyl-3-oxo-3,4-dihydro-2H-benzo[b][1,4]thiazin-6-yl)-3-(5-(1-(2-hydroxypropyl)-1H-pyrazol-4-yl)-1H-indol-3-yl)urea] | 1 to 10 |
| CC1CN(Cc2cc(F)cc(F)c2)c2cc(NC(=O)Nc3c[nH]c4ccc(F)cc34)ccc2S1 (stereo not drawn) [Example 69, 1-(4-(3,5-Difluorobenzyl)-2-methyl-3,4-dihydro-2H-benzo[b][1,4]thiazin-6-yl)-3-(5-fluoro-1H-indol-3-yl)urea] | < 1 |
| CC1CN(C(=O)c2ccccc2)c2cc(NC(=O)Nc3c[nH]c4ccccc34)ccc2S1 (stereo not drawn) [Example 70, 1-(4-Benzoyl-2-methyl-3,4-dihydro-2H-benzo[b][1,4]thiazin-6-yl)-3-(1H-indol-3-yl)urea] | < 1 |
| O=C(Nc1ccc2c(c1)N(Cc1ccccc1)CCO2)Nc1c[nH]c2ccccc12 [Example 71, 1-(4-benzyl-3,4-dihydro-2H-benzo[b][1,4]oxazin-6-yl)-3-(1H-indol-3-yl)urea] | < 1 |
| O=C(Nc1ccc2c(c1)OCCN2Cc1ccccc1)Nc1c[nH]c2ccccc12 [Example 72, 1-(4-benzyl-3,4-dihydro-2H-benzo[b][1,4]oxazin-7-yl)-3-(1H-indol-3-yl)urea] | < 1 |
| O=C(Nc1ccc2c(c1)SCCN2Cc1ccccc1)Nc1c[nH]c2ccccc12 [Example 73, 1-(4-benzyl-3,4-dihydro-2H-benzo[b][1,4]thiazin-7-yl)-3-(1H-indol-3-yl)urea] | < 1 |
| O=C(Nc1ccc2c(c1)N(Cc1c(F)cccc1Cl)CCO2)Nc1c[nH]c2ccccc12 [Example 74, 1-(4-(2-chloro-6-fluorobenzyl)-3,4-dihydro-2H-benzo[b][1,4]oxazin-6-yl)-3-(1H-indol-3-yl)urea] | < 1 |
| O=C(Nc1ccc2c(c1)N(Cc1c(F)cccc1Cl)CCS2)Nc1c[nH]c2ccccc12 [Example 75, 1-(4-(2-chloro-6-fluorobenzyl)-3,4-dihydro-2H-benzo[b][1,4]thiazin-6-yl)-3-(1H-indol-3-yl)urea] | < 1 |
| O=C(Nc1ccc2c(c1)OCCN2Cc1c(F)cccc1Cl)Nc1c[nH]c2ccccc12 [Example 76, 1-(4-(2-chloro-6-fluorobenzyl)-3,4-dihydro-2H-benzo[b][1,4]oxazin-7-yl)-3-(1H-indol-3-yl)urea] | < 1 |
| O=C(Nc1ccc2c(c1)SCCN2Cc1c(F)cccc1Cl)Nc1c[nH]c2ccccc12 [Example 77, 1-(4-(2-chloro-6-fluorobenzyl)-3,4-dihydro-2H-benzo[b][1,4]thiazin-7-yl)-3-(1H-indol-3-yl)urea] | < 1 |
| CN1CCSc2ccc(NC(=O)Nc3c[nH]c4ccccc34)cc21 [Example 78, 1-(1H-indol-3-yl)-3-(4-methyl-3,4-dihydro-2H-benzo[b][1,4]thiazin-6-yl)urea] | < 1 |
| O=C(Nc1ccc2c(c1)N(C(=O)c1ccccc1)CCS2)Nc1c[nH]c2ccccc12 [Example 79, 1-(4-benzoyl-3,4-dihydro-2H-benzo[b][1,4]thiazin-6-yl)-3-(1H-indol-3-yl)urea] | < 1 |
| O=C(Nc1ccc2c(c1)SCCN2C(=O)c1ccccc1)Nc1c[nH]c2ccccc12 [Example 80, 1-(4-benzoyl-3,4-dihydro-2H-benzo[b][1,4]thiazin-7-yl)-3-(1H-indol-3-yl)urea] | < 1 |
| O=C(Nc1ccc2c(c1)SCCN2Cc1c(F)cccc1F)Nc1c[nH]c2ccccc12 [Example 81, 1-(4-(2,6-difluorobenzyl)-3,4-dihydro-2H-benzo[b][1,4]thiazin-7-yl)-3-(1H-indol-3-yl)urea] | < 1 |
| Cc1cccc(F)c1CN1CCSc2cc(NC(=O)Nc3c[nH]c4ccccc34)ccc21 [Example 82, 1-(4-(2-fluoro-6-methylbenzyl)-3,4-dihydro-2H-benzo[b][1,4]thiazin-7-yl)-3-(1H-indol-3-yl)urea] | < 1 |

| Compound | IC50 [µM] |
| --- | --- |
| CC1CN(Cc2ccccc2)c2cc(NC(=O)Nc3c[nH]c4ccccc34)ccc2S1 (stereo not drawn) [Example 83, 1-(4-benzyl-2-methyl-3,4-dihydro-2H-benzo[b][1,4]thiazin-6-yl)-3-(1H-indol-3-yl)urea] | < 1 |
| CC1CN(Cc2c(F)cccc2Cl)c2cc(NC(=O)Nc3c[nH]c4ccccc34)ccc2S1 (stereo not drawn) [Example 84, 1-(4-(2-chloro-6-fluorobenzyl)-2-methyl-3,4-dihydro-2H-benzo[b][1,4]thiazin-6-yl)-3-(1H-indol-3-yl)urea] | < 1 |
| CC1CN(Cc2ccccc2)c2ccc(NC(=O)Nc3c[nH]c4ccccc34)cc2S1 (stereo not drawn) [Example 85, 1-(4-benzyl-2-methyl-3,4-dihydro-2H-benzo[b][1,4]thiazin-7-yl)-3-(1H-indol-3-yl)urea] | < 1 |
| Cc1cc(CN2CCSc3cc(NC(=O)Nc4c[nH]c5ccccc45)ccc32)on1 [Example 86, 1-(1H-indol-3-yl)-3-(4-((3-methylisoxazol-5-yl)methyl)-3,4-dihydro-2H-benzo[b][1,4]thiazin-7-yl)urea] | < 1 |
| N#Cc1ccccc1CN1CCSc2cc(NC(=O)Nc3c[nH]c4ccccc34)ccc21 [Example 87, 1-(4-(2-cyanobenzyl)-3,4-dihydro-2H-benzo[b][1,4]thiazin-7-yl)-3-(1H-indol-3-yl)urea] | < 1 |
| O=C(Nc1ccc2c(c1)SCCN2Cc1cc(F)cc(F)c1)Nc1c[nH]c2ccccc12 [Example 88, 1-(4-(3,5-difluorobenzyl)-3,4-dihydro-2H-benzo[b][1,4]thiazin-7-yl)-3-(1H-indol-3-yl)urea] | < 1 |
| O=C(Nc1ccc2c(c1)SCCN2Cc1ccccn1)Nc1c[nH]c2ccccc12 [Example 89, 1-(1H-indol-3-yl)-3-(4-(pyridin-2-ylmethyl)-3,4-dihydro-2H-benzo[b][1,4]thiazin-7-yl)urea] | < 1 |
| O=C(Nc1ccc2c(c1)N(Cc1cc(F)cc(F)c1)CCO2)Nc1c[nH]c2ccccc12 [Example 90, 1-(4-(3,5-difluorobenzyl)-3,4-dihydro-2H-benzo[b][1,4]oxazin-6-yl)-3-(1H-indol-3-yl)urea] | < 1 |
| O=C(Nc1ccc2c(c1)N(Cc1cc(F)cc(F)c1)CCO2)Nc1c[nH]c2ccc(F)cc12 [Example 91, 1-(4-(3,5-difluorobenzyl)-3,4-dihydro-2H-benzo[b][1,4]oxazin-6-yl)-3-(5-fluoro-1H-indol-3-yl)urea] | < 1 |
| O=C(Nc1ccc2c(c1)N(Cc1cc(F)cc(F)c1)CCS2)Nc1c[nH]c2ccccc12 [Example 92, 1-(4-(3,5-difluorobenzyl)-3,4-dihydro-2H-benzo[b][1,4]thiazin-6-yl)-3-(1H-indol-3-yl)urea] | < 1 |
| O=C(Nc1ccc2c(c1)N(Cc1cc(F)cc(F)c1)CCS2)Nc1c[nH]c2ccc(F)cc12 [Example 93, 1-(4-(3,5-difluorobenzyl)-3,4-dihydro-2H-benzo[b][1,4]thiazin-6-yl)-3-(5-fluoro-1H-indol-3-yl)urea] | < 1 |
| CC1CN(Cc2cc(F)cc(F)c2)c2cc(NC(=O)Nc3c[nH]c4ccccc34)ccc2S1 (stereo not drawn) [Example 94, 1-(4-(3,5-difluorobenzyl)-2-methyl-3,4-dihydro-2H-benzo[b][1,4]thiazin-6-yl)-3-(1H-indol-3-yl)urea] | < 1 |
| NC(=O)c1ccccc1CN1CCSc2cc(NC(=O)Nc3c[nH]c4ccccc34)ccc21 [Example 95, 2-((7-(3-(1H-indol-3-yl)ureido)-2,3-dihydro-4H-benzo[b][1,4]thiazin-4-yl)methyl)benzamide] | < 1 |
| Cc1cc(CN2CCSc3cc(NC(=O)Nc4c[nH]c5ccccc45)ccc32)no1 [Example 96, 1-(1H-indol-3-yl)-3-(4-((5-methylisoxazol-3-yl)methyl)-3,4-dihydro-2H-benzo[b][1,4]thiazin-7-yl)urea] | < 1 |
| CC1CN(Cc2ccccc2)c2cc(NC(=O)Nc3c[nH]c4ccc(F)cc34)ccc2S1 (stereo not drawn) [Example 97, 1-(4-benzyl-2-methyl-3,4-dihydro-2H-benzo[b][1,4]thiazin-6-yl)-3-(5-fluoro-1H-indol-3-yl)urea] | < 1 |
| O=C(Nc1ccc2c(c1)N(Cc1ccccc1)CCS2)Nc1c[nH]c2cc(F)ccc12 [Example 98, 1-(4-benzyl-3,4-dihydro-2H-benzo[b][1,4]thiazin-6-yl)-3-(6-fluoro-1H-indol-3-yl)urea] | < 1 |
| O=C(Nc1ccc2c(c1)N(Cc1ccccc1)CCS2)Nc1c[nH]c2ccc(F)cc12 [Example 99, 1-(4-benzyl-3,4-dihydro-2H-benzo[b][1,4]thiazin-6-yl)-3-(5-fluoro-1H-indol-3-yl)urea] | < 1 |
| O=C(Nc1ccc2c(c1)N(Cc1ccccc1)CCS2)Nc1c[nH]c2ncc(F)cc12 [Example 100, 1-(4-benzyl-3,4-dihydro-2H-benzo[b][1,4]thiazin-6-yl)-3-(5-fluoro-1H-pyrrolo[2,3-b]pyridin-3-yl)urea] | < 1 |
